Earlier results, collected in article PMC7395068, “The evolution of strategies to minimise the risk of human drug-induced liver injury (DILI) in drug discovery and development” (Archives of Toxicology, 2020).
Where a name gives a salt, the structure may show the parent alone. Read-outs that look alike come from different tables or passages of the source. *1 amine or outer side, *2 acyl side, *3 side chain or, on linkers, in order; H or OH if unused. Where a SMILES comes first, the peptide text is derived from it. Bridges are numbered along the chain shown (N, C = ends). [ ]: non-standard residue; d: D form. The star is where a group is joined. pTerphenylCO(4''-OnC5H11) = CCCCCOc1ccc(-c2ccc(-c3ccc(C(=O)*)cc3)cc2)cc1; Orn(4R-OH,5R-OH) = O=C([C@H](C[C@@H](O)[C@@H](O)N[*:3])N[*:1])[*:2]; hTyr(3S-OH,4S-OH) = N[C@H](C(=O)O)[C@H](O)[C@@H](O)c1ccc(O)cc1; Pro(3S-OH,4S-Me) = C[C@H]1CN[C@H](C(=O)O)[C@H]1O; Hyp = O=C(O)[C@@H]1C[C@@H](O)CN1

Settings: cited from earlier work
[1] = LTKB DILIrank category, ref Chen 2016
[2] = binary DILI call, ref Chen 2016

| SMILES | DILI severity category [1] | DILI +VE (5-8), DILI -VE (-4) [2] | also measured |
| --- | --- | --- | --- |
| OC[C@H]1O[C@@H](O[C@@H]2[C@@H](CO)OC(O)(CO)[C@H]2O)[C@H](O)[C@@H](O)[C@H]1O (mixture of isomers) [lactulose] |  |  | DILI +VE (5-8), DILI -VE (-4) (binary in vivo human DILI call, ref Chen 2016): -VE; DILI severity category (human DILI, LTKB DILIrank category, ref Chen 2016): vNo-DILI-Concern |
| CCCCC(C)(O)C/C=C/[C@H]1[C@H](O)CC(=O)[C@@H]1CCCCCCC(=O)OC (mixture of isomers) [misoprostol] |  |  | DILI +VE (5-8), DILI -VE (-4) (in vivo): -VE; DILI severity category (in vivo): Ambiguous DILI-concern |
| O=C(O)CCCc1ccccc1 [4-phenylbutyric acid] | Ambiguous DILI-concern | -VE |  |
| Nc1nc(=O)c2c([nH]1)NC[C@H](CNc1ccc(C(=O)N[C@@H](CCC(=O)O)C(=O)O)cc1)N2C=O [Levoleucovorin] |  |  | DILI +VE (5-8), DILI -VE (-4) (in vivo): -VE; DILI severity category (in vivo): vNo-DILI-Concern |
| CC(=O)NCCCS(=O)(=O)O [acamprosate] |  |  | DILI +VE (5-8), DILI -VE (-4) (in vivo): +VE; DILI severity category (in vivo): vLess-DILI-Concern |
| CCCC(=O)Nc1ccc(OCC(O)CNC(C)C)c(C(C)=O)c1 (centres unmarked) [acebutolol] | vLess-DILI-Concern |  |  |
| O=C(O)COC(=O)Cc1ccccc1Nc1c(Cl)cccc1Cl [aceclofenac] |  |  | DILI +VE (5-8), DILI -VE (-4) (in vivo): +VE; DILI severity category (in vivo): vLess-DILI-Concern |
| CC(=O)NO [acetohydroxamic acid] |  |  | DILI +VE (5-8), DILI -VE (-4) (in vivo): -VE; DILI severity category (in vivo): Ambiguous DILI-concern |
| Nc1ncnc2c1ncn2CCOCP(=O)(O)O [adefovir] | vLess-DILI-Concern |  |  |
| CC(N)C(=O)OC(C)(C)Cc1ccc(Cl)cc1 (centres unmarked) [alaproclate] | vMost-DILI-Concern |  |  |
| C[C@H](N)C(=O)N[C@@H](C)C(=O)N[C@H]1[C@@H]2CN(c3nc4c(cc3F)c(=O)c(C(=O)O)cn4-c3ccc(F)cc3F)C[C@@H]21 [alatrofloxacin mesylate] | vMost-DILI-Concern |  |  |
| C=CCOc1ccc(CC(=O)O)cc1Cl [alclofenac] | vMost-DILI-Concern |  |  |
| COc1cc2nc(N(C)CCCNC(=O)C3CCCO3)nc(N)c2cc1OC (centres unmarked) [alfuzosin] | vLess-DILI-Concern |  |  |
| CN(C)CCc1c[nH]c2ccc(CS(=O)(=O)N3CCCC3)cc12 [almotriptan] | vNo-DILI-Concern | -VE |  |
| Cc1nnc2n1-c1ccc(Cl)cc1C(c1ccccc1)=NC2 [alprazolam] |  |  | DILI +VE (5-8), DILI -VE (-4) (in vivo): +VE; DILI severity category (in vivo): vLess-DILI-Concern |
| C[C@H]1CN(C[C@H](Cc2ccccc2)C(=O)NCC(=O)O)CC[C@@]1(C)c1cccc(O)c1 [alvimopan] | vNo-DILI-Concern | -VE |  |
| CC[N+](CC)(CCNC(=O)C(=O)NCC[N+](CC)(CC)Cc1ccccc1Cl)Cc1ccccc1Cl [ambenonium] |  |  | DILI +VE (5-8), DILI -VE (-4) (in vivo): -VE; DILI severity category (in vivo): vNo-DILI-Concern |
| NCCCNCCSP(=O)(O)O [amifostine] | vNo-DILI-Concern | -VE |  |
| NCCCCCC(=O)O [aminocaproic acid] | vNo-DILI-Concern | -VE |  |
| Nc1ccc(C(=O)NCC(=O)O)cc1 [aminohippurate] |  |  | DILI +VE (5-8), DILI -VE (-4) (in vivo): -VE; DILI severity category (in vivo): vNo-DILI-Concern |
| CCOC(=O)C1=C(COCCN)NC(C)=C(C(=O)OC)C1c1ccccc1Cl (centres unmarked) [amlodipine] |  |  | DILI +VE (5-8), DILI -VE (-4) (in vivo): +VE; DILI severity category (in vivo): vLess-DILI-Concern |
| CC(N)Cc1ccccc1 (centres unmarked) [amphetamine] |  |  | DILI +VE (5-8), DILI -VE (-4) (in vivo): +VE; DILI severity category (in vivo): vLess-DILI-Concern |
| CC(C)CN(C[C@@H](O)[C@H](Cc1ccccc1)NC(=O)O[C@H]1CCOC1)S(=O)(=O)c1ccc(N)cc1 [amprenavir] | Ambiguous DILI-concern | -VE |  |
| O=C1CN2Cc3c(ccc(Cl)c3Cl)N=C2N1 [anagrelide] | Ambiguous DILI-concern | -VE |  |
| CCCCCOc1ccc(-c2ccc(-c3ccc(C(=O)N[C@H]4C[C@@H](O)[C@@H](O)NC(=O)[C@@H]5[C@@H](O)[C@@H](C)CN5C(=O)[C@H]([C@@H](C)O)NC(=O)[C@H]([C@H](O)[C@@H](O)c5ccc(O)cc5)NC(=O)[C@@H]5C[C@@H](O)CN5C(=O)[C@H]([C@@H](C)O)NC4=O)cc3)cc2)cc1 [anidulafungin] ({pTerphenylCO(4''-OnC5H11)}-[Orn(4R-OH,5R-OH)]T[Hyp][hTyr(3S-OH,4S-OH)]T[Pro(3S-OH,4S-Me)]; lactam 1-C) | Ambiguous DILI-concern | -VE |  |
| CN1CCc2cccc3c2[C@H]1Cc1ccc(O)c(O)c1-3 [apomorphine] | vNo-DILI-Concern | -VE |  |

| SMILES | DILI severity category [1] | DILI +VE (5-8), DILI -VE (-4) [2] | also measured |
| --- | --- | --- | --- |
| NC(=O)C[S@@+]([O-])C(c1ccccc1)c1ccccc1 [armodafinil] | Ambiguous DILI-concern | -VE |  |
| CNCC[C@@H](Oc1ccccc1C)c1ccccc1 [atomoxetine] | vMost-DILI-Concern |  |  |
| O=C1C(O)=C([C@H]2CC[C@H](c3ccc(Cl)cc3)CC2)C(=O)c2ccccc21 [atovaquone] | Ambiguous DILI-concern | -VE |  |
| COc1ccc(CC2c3cc(OC)c(OC)cc3CC[N+]2(C)CCC(=O)OCCCCCOC(=O)CC[N+]2(C)CCc3cc(OC)c(OC)cc3C2Cc2ccc(OC)c(OC)c2)cc1OC (centres unmarked) [atracurium] | vNo-DILI-Concern | -VE |  |
| CC(=O)OC[C@H]1O[C@@H]([S-])[C@H](OC(C)=O)[C@@H](OC(C)=O)[C@@H]1OC(C)=O.CCP(CC)CC.[Au+] [auranofin] | vLess-DILI-Concern |  |  |
| Nc1ncn([C@@H]2O[C@H](CO)[C@@H](O)[C@H]2O)c(=O)n1 [azacitidine] | Ambiguous DILI-concern | -VE |  |
| O=C(O)CCNC(=O)c1ccc(/N=N/c2ccc(O)c(C(=O)O)c2)cc1 [balsalazide] | Ambiguous DILI-concern | -VE |  |
| Cn1c(CCCC(=O)O)nc2cc(N(CCCl)CCCl)ccc21 [bendamustine] |  |  | DILI +VE (5-8), DILI -VE (-4) (in vivo): -VE; DILI severity category (in vivo): vNo-DILI-Concern |
| O=C(O)COc1nn(Cc2ccccc2)c2ccccc12 [bendazac] | vMost-DILI-Concern |  |  |
| NS(=O)(=O)c1cc2c(cc1C(F)(F)F)NC(Cc1ccccc1)NS2(=O)=O (centres unmarked) [bendroflumethiazide] | vLess-DILI-Concern |  |  |
| CCCCNc1ccc(C(=O)OCCOCCOCCOCCOCCOCCOCCOCCOCCOC)cc1 [benzonatate] | vLess-DILI-Concern |  |  |
| C[C@@H](Cc1ccccc1)N(C)Cc1ccccc1 [benzphetamine] |  |  | DILI +VE (5-8), DILI -VE (-4) (in vivo): -VE; DILI severity category (in vivo): vNo-DILI-Concern |
| CC(C)NCC(O)COc1ccc(CCOCC2CC2)cc1 (centres unmarked) [betaxolol] | Ambiguous DILI-concern | -VE |  |
| CC(C[N+](C)(C)C)OC(N)=O (centres unmarked) [bethanechol] | vNo-DILI-Concern | -VE |  |
| CC(C)C[C@H](NC(=O)[C@H](Cc1ccccc1)NC(=O)c1cnccn1)B(O)O [bortezomib] | vMost-DILI-Concern |  |  |
| CC(C)C[C@H]1C(=O)N2CCC[C@H]2[C@]2(O)O[C@](NC(=O)[C@@H]3C=C4c5cccc6[nH]c(Br)c(c56)C[C@H]4N(C)C3)(C(C)C)C(=O)N12 [bromocriptine] | vLess-DILI-Concern |  |  |
| CCC(C)C1(CC)C(=O)NC(=O)NC1=O (centres unmarked) [butabarbital] | Ambiguous DILI-concern | -VE |  |
| C=CCN1C[C@H](C(=O)N(CCCN(C)C)C(=O)NCC)C[C@@H]2c3cccc4[nH]cc(c34)C[C@H]21 [cabergoline] | vNo-DILI-Concern | -VE |  |
| CC(C)C[C@H](NC(=O)[C@H](CCCCN)NC(=O)CNC(=O)[C@H](CC(C)C)NC(=O)[C@@H](NC(=O)[C@@H]1CSSC[C@H](N)C(=O)N[C@@H](CO)C(=O)N[C@@H](CC(N)=O)C(=O)N[C@@H](CC(C)C)C(=O)N[C@@H](CO)C(=O)N[C@@H]([C@@H](C)O)C(=O)N1)C(C)C)C(=O)N[C@@H](CO)C(=O)N[C@@H](CCC(N)=O)C(=O)N[C@@H](CCC(=O)O)C(=O)N[C@@H](CC(C)C)C(=O)N[C@@H](Cc1c[nH]cn1)C(=O)N[C@@H](CCCCN)C(=O)N[C@@H](CC(C)C)C(=O)N[C@@H](CCC(N)=O)C(=O)N[C@H](C(=O)N[C@@H](Cc1ccc(O)cc1)C(=O)N1CCC[C@H]1C(=O)N[C@@H](CCCNC(=N)N)C(=O)N[C@H](C(=O)N[C@@H](CC(N)=O)C(=O)N[C@H](C(=O)NCC(=O)N[C@@H](CO)C(=O)NCC(=O)N[C@H](C(=O)N1CCC[C@H]1C(N)=O)[C@@H](C)O)[C@@H](C)O)[C@@H](C)O)[C@@H](C)O [calcitonin salmon] |  |  | DILI +VE (5-8), DILI -VE (-4) (in vivo): -VE; DILI severity category (in vivo): vNo-DILI-Concern |
| C=C1/C(=C\C=C2/CCC[C@]3(C)[C@@H]([C@H](C)CCCC(C)(C)O)CC[C@@H]23)C[C@@H](O)C[C@@H]1O [calcitriol] | vNo-DILI-Concern | -VE |  |
| CC(=O)[O-].CC(=O)[O-].[Ca+2] [calcium acetate] |  |  | DILI +VE (5-8), DILI -VE (-4) (in vivo): -VE; DILI severity category (in vivo): vNo-DILI-Concern |
| CCCCCOC(=O)Nc1nc(=O)n([C@@H]2O[C@H](C)[C@@H](O)[C@H]2O)cc1F [capecitabine] | Ambiguous DILI-concern | -VE |  |
| CC1(C)S[C@@H]2[C@H](NC(=O)C(C(=O)O)c3ccccc3)C(=O)N2[C@H]1C(=O)O (some centres unmarked) [carbenicillin] | vLess-DILI-Concern |  |  |
| CN(C)CCOC(c1ccc(Cl)cc1)c1ccccn1 (centres unmarked) [carbinoxamine] | vNo-DILI-Concern | -VE |  |
| CCCCC[C@](C)(O)/C=C/[C@@H]1[C@@H](C/C=C\CCCC(=O)O)[C@@H](O)C[C@H]1O [carboprost tromethamine] | vNo-DILI-Concern | -VE |  |
| COc1ccccc1OCCNCC(O)COc1cccc2[nH]c3ccccc3c12 (centres unmarked) [carvedilol] | vLess-DILI-Concern |  |  |
